Test results from ChEMBL document CHEMBL1149949, “Nonpeptidic HIV protease inhibitors: 3-(S-benzyl substituted)-4-hydroxy-6-(phenyl substituted)-2H-pyran-2-one with an inverse mode of binding” (Bioorg Med Chem Lett, 1996).
pIC50: −log10 of the molar value.

Target: Human immunodeficiency virus type 1 protease (Human immunodeficiency virus 1, UniProt Q72874)
Assay: In vitro inhibitory activity against HIV-1 protease(PR).

SMILES	pIC50
COC(=O)c1cccc(CSc2c(O)cc(-c3ccccc3)oc2=O)c1	4.71
O=C(OC1CCCC1)c1ccccc1CSc1c(O)oc(-c2ccccc2)cc1=O	7.30
O=C(O)c1ccccc1CSc1c(O)cc(-c2ccccc2)oc1=O	4.61
O=c1cc(-c2ccccc2Cl)oc(O)c1SCc1ccccc1	5.60
Cc1cc(C)cc(-c2cc(O)c(SCc3ccccc3)c(=O)o2)c1	6.59
O=c1cc(-c2cccc(Cl)c2)oc(O)c1SCc1ccccc1	6.16
COc1cccc(-c2cc(O)c(SCc3ccccc3)c(=O)o2)c1	6.00
O=C(O)c1ccc(-c2cc(O)c(SCc3ccccc3)c(=O)o2)cc1	6.44
O=c1cc(-c2ccccc2)oc(O)c1SCc1ccccc1	5.77
Cc1ccc(-c2cc(O)c(SCc3ccccc3)c(=O)o2)cc1	4.91
O=c1cc(-c2cccc(O)c2)oc(O)c1SCc1ccccc1	5.92
COc1ccc(-c2cc(O)c(SCc3ccccc3)c(=O)o2)cc1	5.79
O=c1cc(-c2cc(C(F)(F)F)cc(C(F)(F)F)c2)oc(O)c1SCc1ccccc1	6.20
CC(C)OC(=O)c1ccccc1CSc1c(O)cc(-c2ccccc2)oc1=O	7.47
O=c1cc(-c2cccc(OC(F)(F)F)c2)oc(O)c1SCc1ccccc1	5.67

The next lines start with the values.

pIC50	SMILES
5.34	Cc1ccc(CSc2c(O)cc(-c3ccccc3)oc2=O)cc1
6.13	COc1ccc(-c2cc(O)c(SCc3ccccc3)c(=O)o2)cc1C
5.47	O=c1cc(-c2ccccc2)oc(O)c1SCc1ccc2c(c1)OCCO2
6.60	Cc1cc(-c2cc(O)c(SCc3ccccc3)c(=O)o2)cc(C)c1O
< 5.00	COC(=O)c1ccc(CSc2c(O)cc(-c3ccccc3)oc2=O)cc1
6.10	O=c1cc(-c2ccc3c(c2)OCCO3)oc(O)c1SCc1ccccc1
5.22	O=c1cc(-c2ccccc2O)oc(O)c1SCc1ccccc1
6.16	O=c1cc(-c2ccc(O)cc2)oc(O)c1SCc1ccccc1
4.85	Cc1ccccc1-c1cc(O)c(SCc2ccccc2)c(=O)o1
6.07	Cc1cccc(-c2cc(O)c(SCc3ccccc3)c(=O)o2)c1
5.21	O=C(O)c1cccc(CSc2c(O)cc(-c3ccccc3)oc2=O)c1
5.92	O=C(OC1CCCCC1)c1ccccc1CSc1c(O)oc(-c2ccccc2)cc1=O
6.00	COC(=O)c1ccccc1CSc1c(O)cc(-c2ccccc2)oc1=O
5.07	Cc1cccc(CSc2c(O)cc(-c3ccccc3)oc2=O)c1
< 4.00	COC(=O)c1ccc(-c2cc(O)c(SCc3ccccc3)c(=O)o2)cc1
6.72	CC(C)(C)NC(=O)c1ccccc1CSc1c(O)cc(-c2ccccc2)oc1=O
6.21	CC(C)COC(=O)c1ccccc1CSc1c(O)cc(-c2ccccc2)oc1=O
5.69	CCc1cccc(-c2cc(O)c(SCc3ccccc3)c(=O)o2)c1
6.22	O=c1cc(-c2cccc(C(F)(F)F)c2)oc(O)c1SCc1ccccc1
5.27	Cc1ccccc1CSc1c(O)cc(-c2ccccc2)oc1=O
4.99	O=C(O)c1ccc(CSc2c(O)cc(-c3ccccc3)oc2=O)cc1
